Measured values reported in ChEMBL document CHEMBL1150093, “Santolindiacetylene, a polyacetylene derivative isolated from the essential oil of Santolina canescens” (J Nat Prod, 1995).
Values after ≈ are worked out from the molar mass of the structure shown.

Tests used:
[1] = system: Radical scavenging activity; experiment: Antioxidant activity assessed as DPPH radical scavenging activity; format: functional
Rattus norvegicus [2] = experiment: Antihepatotoxic activity against carbon tetrachloride-induced hepatotoxicity in Wistar rat assessed as decrease in serum glutamate pyruvate transaminase level at 7 mg/kg, ip administered 24 hrs before carbon tetrachloride intoxication; format: functional; conditions: route intraperitoneal
Rattus norvegicus [3] = experiment: Antihepatotoxic activity against carbon tetrachloride-induced hepatotoxicity in Wistar rat liver assessed as decrease in serum glutamate pyruvate transaminase level at 7 mg/kg, ip administered 24 hrs before carbon tetrachloride intoxication relative to control; format: functional; parameters: scale not given: the % may be the effect or the level left; conditions: route intraperitoneal
Rattus norvegicus [4] = experiment: Antihepatotoxic activity against carbon tetrachloride-induced hepatotoxicity in Wistar rat liver assessed as decrease in hepatic malondialdehyde level at 7 mg/kg, ip administered 24 hrs before carbon tetrachloride intoxication; format: functional; conditions: route intraperitoneal
Rattus norvegicus [5] = experiment: Antihepatotoxic activity against carbon tetrachloride-induced -induced hepatotoxicity in Wistar rat liver assessed as decrease in hepatic malondialdehyde level at 7 mg/kg, ip administered 24 hrs before carbon tetrachloride intoxication relative to control; format: functional; parameters: scale not given: the % may be the effect or the level left; conditions: route intraperitoneal
Rattus norvegicus [6] = experiment: Antihepatotoxic activity against carbon tetrachloride-induced hepatotoxicity in Wistar rat liver assessed as decrease in hepatic malondialdehyde level at 35 mg/kg, ip administered 24 hrs before carbon tetrachloride intoxication relative to control; format: functional, organism-based; parameters: dose 35 mg/kg; scale not given: the % may be the effect or the level left
Rattus norvegicus [7] = experiment: Antihepatotoxic activity against carbon tetrachloride-induced hepatotoxicity in Wistar rat liver assessed as decrease in serum glutamate pyruvate transaminase level at 35 mg/kg, ip administered 24 hrs before carbon tetrachloride intoxication; format: functional, organism-based; parameters: dose 35 mg/kg
Rattus norvegicus [8] = experiment: Antihepatotoxic activity against carbon tetrachloride-induced hepatotoxicity in Wistar rat liver assessed as decrease in serum glutamate pyruvate transaminase level at 35 mg/kg, ip administered 24 hrs before carbon tetrachloride intoxication relative to control; format: functional, organism-based; parameters: dose 35 mg/kg; scale not given: the % may be the effect or the level left
Rattus norvegicus [9] = experiment: Antihepatotoxic activity against carbon tetrachloride-induced hepatotoxicity in Wistar rat liver assessed as decrease in hepatic malondialdehyde level at 35 mg/kg, ip administered 24 hrs before carbon tetrachloride intoxication; format: functional, organism-based; parameters: dose 35 mg/kg

EC50 [1]	Molecule	also measured
–	O=C1O[C@H]([C@@H](O)CO)C(O)=C1O	Activity [1]: 2.7 µg/mL
330.6 mg/mL (≈ 2430 mM)	CC1=CCC2CC1C2(C)C (stereo not drawn) [ALPHA-PINENE]	–
0.1463 mg/mL (≈ 0.948 mM)	CC1=CC[C@@H](C(C)(C)O)CC1 [ALPHA-TERPINEOL]	–
127.7 mg/mL (≈ 937 mM)	C=C1C=CC(C(C)C)CC1 (stereo not drawn) [BETA-PHELLANDRENE]	–
220.1 mg/mL (≈ 1620 mM)	C=C1CCC2CC1C2(C)C (stereo not drawn) [BETA-PINENE]	–
2.4 mg/mL (≈ 15.6 mM)	CC1(C)C2CCC1(C)C(O)C2 (centres undefined) [BORNEOL]	–
2.4 mg/mL (≈ 15.8 mM)	CC12CCC(CC1=O)C2(C)C (centres undefined) [CAMPHOR]	–
11.7 mg/mL (≈ 77.9 mM)	C=C(C)C1CC=C(C)C(=O)C1 (centres undefined) [CARVONE]	–
0.0037 mg/mL (≈ 0.0181 mM)	C=C1CC/C=C(/C)CC[C@@H]2[C@@H]1CC2(C)C [CARYOPHYLLENE]	–
22 mg/mL (≈ 161 mM)	CC1=CCC(C(C)C)=CC1 [GAMMA-TERPINENE]	–
248 mg/mL (≈ 1820 mM)	C=CC(=C)CCC=C(C)C [MYRCENE]	–
408 mg/mL (≈ 3040 mM)	Cc1ccc(C(C)C)cc1 [P-CYMENE]	–
232.7 mg/mL (≈ 1710 mM)	C=C1CCC2(C(C)C)CC12 (centres undefined) [SABINENE]	–
–	CC#CC#CCc1ccc2ccccc2c1 [SANTOLINDIACETYLENE]	Activity [1]: 1.7 µg/mL; Activity (Rattus norvegicus [2]): 23.3 IU/L; Activity (Rattus norvegicus [3]): 19.8%; Activity (Rattus norvegicus [4]): 0.182 nmol/mL; Activity (Rattus norvegicus [5]): 33.3%
53.7 mg/mL (≈ 348 mM)	CC1=CCC(O)(C(C)C)CC1 (centres undefined) [TERPINEOL]	–
–	SILYMARIN	Activity [1]: 24.6 µg/mL; Activity (Rattus norvegicus [6]): 36.6%; Activity (Rattus norvegicus [7]): 27.9 IU/L; Activity (Rattus norvegicus [8]): 23.7%; Activity (Rattus norvegicus [9]): 0.2 nmol/mL
